# In patent US20220257569A1, “INDOLE-OXADIAZOLE COMPOUNDS AND THEIR THERAPEUTIC USE” (THE GOVERNING COUNCIL OF THE UNIVERSITY OF TORONTO, priority 2018, published 2022):
# Assay: Rat liver microsomal stability assay
# Type: in vitro ADME
# Conditions: pooled rat liver microsomes 0.5 mg/mL, 3 μM compound, NADPH, 37° C., 45 min
# Experimental: Metabolic stability of indole-oxadiazole derivatives of Formula I was measured by determination of the rate of compound disappearance when incubated in the presence of human or rat liver microsomes. Liver microsomes are prepared from the endoplasmic reticulum of hepatocytes and are the primary source of the most important enzymes (cytochrome P450) involved in drug metabolism. Study of drug stability in the presence of liver microsomes is accepted as a valuable model permitting rapid prediction of in vivo drug stability.
# Human and rat liver microsomes were obtained from commercial sources. Test compounds (3 μM) were incubated with pooled liver microsomes (male and female). Samples were incubated for a 45 minute period and removed at 5 time points and test compounds were analysed by LC-MS/MS.
# Microsomes (final protein concentration 0.5 mg/mL), 0.1 M phosphate buffer pH 7.4, and test compound (final concentration 3 μM; diluted from 10 mM stock solution to give a final DMSO concentration of 0.25%) were incubated at 37° C. prior to the addition of NADPH (final concentration 1 mM) to initiate the reaction. The final incubation volume was 25 μL. A control incubation was included for each compound tested, where 0.1 M phosphate buffer pH 7.4 was added instead of NADPH. The control compounds testosterone and 7-hydroxycoumarin were included in each experiment and all incubations were performed singularly for each compound.
# Each compound was incubated for 0, 5, 15, 30, and 45 minutes. The control (minus NADPH) was incubated for 45 minutes only. The reactions were stopped by the addition of 50 μL methanol containing internal standard at the appropriate time points. The incubation plates were centrifuged at 2500 rpm for 20 minutes at 4° C. to precipitate the protein.
# Following protein precipitation, the sample supernatants were combined in cassettes of up to 4 compounds and analysed using standard LC-MS/MS conditions.
# From a plot of the natural logarithm of the peak area ratio (i.e., the ratio of compound peak area:internal standard peak area) against time, the gradient of the line was determined. Subsequently, half-life and intrinsic clearance were calculated using the equations below:
# Eliminated rate constant (k)=(−gradient).
structure (smiles),measurement,value
"CCc1c(-c2nnc(Nc3ccccc3)o2)[nH]c2ccc(Cl)cc12 [ABM300, 5-(5-Chloro-3-ethyl-1H-indol-2-yl)-N-phenyl-1,3,4-oxadiazol-2-amine]",Microsomal stability T1/2 Rat,110 min
